Values quoted from earlier work in patent US20030236237A1, “Method of treating symptoms of hormonal variation, including hot flashes, using tachykinin receptor antagonist” (priority 2000, published 2003).
Where two headings read alike, the source gives them in different places.

Assays:
hot flashes [1] = settings: transdermal; tamoxifen-treated women
hot flash = settings: humans
hot flashes [2] = settings: low dose oral; men and women; short term study
[3] = tested on: neurokinin B gene expression in the hypothalamic arcuate nucleus (ArN); settings: ovariectomized rat treated with estrogen
[4] = tested on: neurokinin B gene expression in the hypothalamic arcuate nucleus (ArN); settings: ovariectomized primate treated with estrogen

Compound: Clc1cccc(Cl)c1N=C1NCCN1 [clonidine]
- frequency and severity of hot flashes (hot flashes [1]): only a moderate effect

Compound: substance P [substance-P]
- clinical hot flash after systemic injection (hot flash): results in a clinical hot flash

Compound: CC(=O)O[C@]1(C(C)=O)CC[C@H]2[C@@H]3C=C(C)C4=CC(=O)CC[C@]4(C)[C@H]3CC[C@@]21C [megestrol acetate]
- frequency of hot flashes (hot flashes [2]): shown to reduce the frequency of hot flashes

Compound: estrogen
- ArN changes (increased NKB gene expression) [3]: completely prevents
- ArN changes (increased NKB gene expression) [4]: completely prevents
